Results from patent publication US11186551B2, “Composition of scalable thyrointegrin antagonists with improved retention in tumors” (NanoPharmaceuticals, LLC, priority 2020, dated 2021).
Entries after “also recorded” stand apart in the source; their conditions may differ.

Tests used:
U87-luc xenografts = experiment: GBM xenograft efficacy: tumor weight and luminescent signal intensity; assay type: in vivo, Nude mice; settings: for Tumor weight after 3 weeks of treatment: control approximately 600 mg; for Luminescent signal intensity after 3 weeks of treatment: control approximately 600,000p/s
Procedure: The efficacy of these compounds/compositions with respect to GBM tumors will now be described with reference to FIGS. 30-33. The study protocol is as follows: Nude mice having U87-luc xenografts were treated with varying dosages of Compound 2 (fb-PMT) for 3 weeks. Efficacy was determined by tumor weight and luminescent signal intensity compared with a control group. Further, treatment efficacy was also evaluated in comparison with known potential treatment Cilengitide. Efficacy was also determined again after an additional 3 week period with no additional treatment.

[1] = test system: angiogenesis induced by bFGF, VEGF, HGF; experiment: Anti-angiogenic effect in CAM Models in the presence of growth factors; assay type: in vivo
Description: In addition to good initial uptake, the disclosed compounds also have good anti-angiogenic effect. […] Specifically, Compound 2 is effective at reducing the percentage of angiogenesis present in CAM Models, when administered in the presence of the following growth factors: bFGF, VEGF, VEGF+bFGF, and bFGF+VEGF+HGF.
This broad spectrum anti-angiogenic effect is in contrast to existing therapeutic compounds/compositions such as AVASTIN® (bevacizumab).

[2] = mouse, in vivo, sc, 10 mg/kg
Procedure: Concentrations are shown as recorded 3 h following administration.
Each group contained 4 mice.

[3] = cynomolgus monkey, in vivo, sc, 15 mg/kg
[4] = mouse, in vivo, sc, 10 mg/kg; remark: listed apart in the source
Procedure: Again, a single subcutaneous injection was used in mice. The administered dose was 10 mg/Kg.

[5] = Compound 2 6 mg/kg, Cilengitide 75 mg/kg
[6] = Compound 2 6 mg/kg, Cilengitide 75 mg/kg, control approximately 750 mg
[7] = Compound 2 6 mg/kg, Cilengitide 75 mg/kg, control over 800,000p/s

Row | Compound | Tumor weight after 3 weeks of treatment (U87-luc xenografts; [5]) | Tumor weight after 3 weeks of treatment followed by 3 weeks without treatment (U87-luc xenografts; [6]) | Luminescent signal intensity after 3 weeks of treatment (U87-luc xenografts; [5]) | Luminescent signal intensity after 3 weeks of treatment followed by 3 weeks without treatment (U87-luc xenografts; [7]) | Average Brain Concentration (ng/g), 3 hour [2] [ng/g] | other results
1 | CC(C)[C@H]1C(=O)N[C@@H](CCCN=C(N)N)C(=O)NCC(=O)N[C@@H](CC(=O)O)C(=O)N[C@H](Cc2ccccc2)C(=O)N1C [Cilengitide, reference compound] | approximately 300 mg | over 400 mg | approximately 300,000 p/s | over 500,000 p/s | – | –
2 | bevacizumab [AVASTIN®] | – | – | – | – | – | Anti-angiogenic effect in CAM Model against VEGF alone ([1]; VEGF alone): primarily effective against VEGF alone; Percent of angiogenesis in CAM Model for bFGF or HGF ([1]; bFGF or HGF): does not meaningfully reduce; Anti-angiogenic effect in CAM Model, VEGF combined with other growth factors ([1]; bFGF or bFGF and HGF present along with VEGF): does not demonstrate good effect
3 | di-tbutylbenzyl conjugated to triazole tetrac by polyethylene glycol [Compound 4] | – | – | – | – | 922 | –
4 | fluorobenzyl conjugated to triazole tetrac by polyethylene glycol [Compound 2] | under 50 mg | further reduction | negligible levels | even further reduction | 228 | Time of plasma concentration peak [3]: 1 to 4 h; Brain tissue uptake and retention over time [4]: uptake and retention over a 24 hour period; Tumor weight after 3 weeks of treatment (U87-luc xenografts; all doses 1, 3, 6 and 10 mg/kg): under 100 mg; Tumor weight after 3 weeks of treatment followed by 3 weeks off treatment (U87-luc xenografts; all doses 1, 3, 6 and 10 mg/kg, control approximately 750 mg): further and additional reduction; Luminescent signal intensity after 3 weeks of treatment (U87-luc xenografts; all doses 1, 3, 6 and 10 mg/kg): under 100,000 p/s; Luminescent signal intensity after 3 weeks of treatment followed by 3 weeks off treatment (U87-luc xenografts; all doses 1, 3, 6 and 10 mg/kg, control over 800,000p/s): further and additional reduction; Percentage of angiogenesis in CAM Model ([1]; 1.0 μg, growth factors bFGF, VEGF, VEGF+bFGF, bFGF+VEGF+HGF): only slightly above baseline; also recorded: inhibition of angiogenesis against all three growth factors, both alone and in combination
